Laboratory results reported in article PMC12718135, “Non-catalytic UBL2 domain directs deubiquitinase USP11 toward K48-linked polyubiquitin chains” (The Journal of Biological Chemistry, 2025).

Tests used:
[1] = target: T1, USP11ΔDUSP (Homo sapiens, UniProt P51784); test: SDS-gel deubiquitination of K48- and K63-polyubiquitinated Rsp5; assay type: biochemical; details: K48- and K63-linked poly-ubiquitinated Rsp5 substrates
T1 construct: gene USP11; N-terminal DUSP domain removed; keeps UBL1, D1, UBL2-IDR, D2

[2] = target: T2, USP11-D1D2 (Homo sapiens, UniProt P51784); test: SDS-gel deubiquitination of K63-polyubiquitinated Rsp5 (fluorescein-Ub); assay type: biochemical; details: 1 μM enzyme, 25 mM Tris pH 7.5, 200 mM NaCl, 3 mM βME
T2 construct: catalytic core only: D1 and D2 segments joined by five residues (ASTSK), UBL2-IDR insert, DUSP and UBL1 removed; E. coli BL21 RIL, N-terminal His6 tag cut with TEV
T2 sequence (P51784 286-490 limits assumed): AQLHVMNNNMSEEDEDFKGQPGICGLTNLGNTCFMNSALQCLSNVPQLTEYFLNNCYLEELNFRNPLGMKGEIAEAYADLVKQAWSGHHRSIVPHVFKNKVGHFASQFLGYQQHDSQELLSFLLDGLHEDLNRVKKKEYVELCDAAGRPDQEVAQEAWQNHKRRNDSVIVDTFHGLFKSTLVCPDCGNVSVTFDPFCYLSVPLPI
T2 sequence (P51784 735-930 limits assumed): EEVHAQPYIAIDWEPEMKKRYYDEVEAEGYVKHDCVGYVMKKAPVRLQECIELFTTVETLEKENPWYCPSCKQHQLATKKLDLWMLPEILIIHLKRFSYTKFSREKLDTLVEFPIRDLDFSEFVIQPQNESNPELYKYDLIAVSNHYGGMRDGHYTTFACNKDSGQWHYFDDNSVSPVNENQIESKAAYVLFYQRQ

T1 sequence (P51784 185-963 limits assumed, stated change not applied): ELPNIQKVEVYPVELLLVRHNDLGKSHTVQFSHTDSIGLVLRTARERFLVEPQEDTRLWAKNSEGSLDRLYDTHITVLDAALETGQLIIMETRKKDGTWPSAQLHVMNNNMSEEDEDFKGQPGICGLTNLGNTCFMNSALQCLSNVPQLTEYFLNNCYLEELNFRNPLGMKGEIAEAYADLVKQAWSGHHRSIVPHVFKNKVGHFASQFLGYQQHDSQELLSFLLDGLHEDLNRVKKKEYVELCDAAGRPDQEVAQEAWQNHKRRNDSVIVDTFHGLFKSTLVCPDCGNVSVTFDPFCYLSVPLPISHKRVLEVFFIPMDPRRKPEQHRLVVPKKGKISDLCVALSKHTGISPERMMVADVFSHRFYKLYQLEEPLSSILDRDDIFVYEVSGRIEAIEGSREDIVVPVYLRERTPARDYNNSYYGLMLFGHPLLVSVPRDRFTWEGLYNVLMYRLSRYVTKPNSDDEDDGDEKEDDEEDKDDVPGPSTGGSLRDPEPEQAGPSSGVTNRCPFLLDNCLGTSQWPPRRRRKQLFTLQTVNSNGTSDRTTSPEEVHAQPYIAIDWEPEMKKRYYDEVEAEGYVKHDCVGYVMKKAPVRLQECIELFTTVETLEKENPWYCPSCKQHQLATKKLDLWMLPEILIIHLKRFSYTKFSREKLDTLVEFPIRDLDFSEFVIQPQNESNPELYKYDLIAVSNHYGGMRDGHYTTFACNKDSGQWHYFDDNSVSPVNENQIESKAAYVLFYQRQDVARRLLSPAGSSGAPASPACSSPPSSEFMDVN

Row | IC50 [2] | IC50 ([2]; value printed collectively for the analogs) | Structure (SMILES) | SDS-gel deubiquitination of K48- and K63-polyubiquitinated Rsp5 [1]
1 | ~30 µM | – | Oc1ccc(C2CNCCc3c2cc(O)c(O)c3Cl)cc1 (centres unmarked) [Fenoldopam] | Fenoldopam and Olanzapine effectively disrupted the ability of USP11ΔDUSP to process both K48 and K63-linked
2 | – | – | Cc1cc2c(s1)Nc1ccccc1N=C2N1CCN(C)CC1 [Olanzapine] | Fenoldopam and Olanzapine effectively disrupted the ability of USP11ΔDUSP to process both K48 and K63-linked
3 | – | ~30 µM | Oc1ccc(C2CNCCc3c2cc(O)c(O)c3Cl)cc1 (centres unmarked) [SRF-01] | SRF-01, SRF-02, SRF-03, and SRO-01 also inhibited the activity of USP11ΔDUSP
4 | ~30 µM | – | Oc1cc2c(cc1O)C(c1ccccc1)CNCC2 (centres unmarked) [SRF-02] | SRF-01, SRF-02, SRF-03, and SRO-01 also inhibited the activity of USP11ΔDUSP
5 | ~30 µM | – | CN1CCc2cc(Cl)c(O)cc2[C@@H](c2ccccc2)C1 [SRF-03] | SRF-01, SRF-02, SRF-03, and SRO-01 also inhibited the activity of USP11ΔDUSP
6 | ~30 µM | – | Cc1cc2c(s1)Nc1ccccc1N=C2N1CC[N+](C)([O-])CC1 [SRO-01] | SRF-01, SRF-02, SRF-03, and SRO-01 also inhibited the activity of USP11ΔDUSP
